Consider one compound from patent publication US9682928B2 (NeuroPro Therapeutics, Inc., priority 2009, dated 2017).

Each structure is given as a SMILES string. “Also recorded” adds a separate entry of the source.

Data set [1] deals with Male CD-1 mice. Briefly: Chung (SNL) neuropathic pain study in mice. The settings on record: mice, i.p., SNL. Format: in vivo, mouse. The source says: Male CD-1 mice (25-35 g, Charles River) were used for all studies. Mice were housed in groups of five in Plexiglas chambers with food and water available ad libitum. All animals were maintained on a 12 hr light/dark cycle (lights on at 7:00 AM) in a temperature- and humidity-controlled animal colony. The health status of the animals used in this study was examined on arrival. Only animals in good health were acclimatized to laboratory conditions and used in the study. The acclimation period to the vivarium was a minimum of 7 days. All animal experiments were performed under an approved protocol in accordance with institutional guidelines and in accordance with the Guide for the Care and Use of Laboratory Animals as adopted and promulgated by the National Institutes of Health.
NTP has provided adequate amounts of NTP-2014 and NTP-2026 along with detailed instructions for preparing injection solutions. Gabapentin (Gallipot, St. Paul, Minn.) was dissolved in physiological saline. Injections were made using a 1-mL syringe with a 30-gauge needle at a volume of 10 ml/kg body weight. Animal body weights were measured prior to surgery and then on the morning of Day 7 (post-SNL testing). For i.p. drug administration, each mouse was firmly grasped by the nape of the neck and the tail was tucked between the last two fingers and palm of the technician's hand. The back of the mouse iwasarched slightly backwards exposing the abdominal region. The needle was inserted through the skin and abdominal musculature into the peritoneal cavity just off of the midline. Mice are immediately returned to the testing cage until behavioral testing.
NTP2026 (56, 100 and 180 mg/kg, i.p.); NTP 2014 (32, 56 and 100 mg/kg, i.p.); Gabapentin (100 mg/kg, i.p.); Vehicle Control (10% TPGS in benzoate buffer, i.p.).
SNL surgeries were performed based on the procedures described for rats (Kim and Chung, 1992) and modified for mice (Wang et al., 2001). Anesthesia was maintained with 0.5% halothane in O2 and body temperature was maintained using a heated water blanket. After surgical preparation of the mice, a 1-cm paraspinal incision was made at the level L4-S2. The L5 and L6 spinal nerves were exposed and tightly ligated using a 4-0 silk suture. The ligation was made distal to the dorsal root ganglion but before the fibers joined the sciatic nerve. The incisions were then closed, and animals are allowed to recover. […] Mechanical thresholds were determined by measuring the paw withdrawal threshold to probing with a series of calibrated von Frey filaments as described below.
Non-noxious sensory thresholds of the mice were determined by paw withdrawal […] to probing with a series of calibrated (0.02-2.34 gm on a logarithmic scale) von Frey filaments (“up and down” method) according to Chaplan et al. (1994) and analyzed using a Dixon (1980) nonparametric test. Results are expressed as the mean withdrawal thresholds. Baseline latencies/thresholds were determined prior to surgery, on the morning of Day 7, and then between 20-60 minutes post dosing with the test drugs. The post-drug time corresponds to the time of maximal activity for these compounds in the tail-flick assay.

In the next data set the test system is male Sprague Dawley rats. Briefly: Taxol-induced peripheral neuropathy (rat), mechanical allodynia (von Frey). It counts as in vivo. The settings on record: gabapentin 100 mg/kg. From the text:
In this study, an animal model of Taxol-induced sensory neuropathy was employed to evaluate the effects of the sponsor's test compounds, for response to tactile sensitivity using von Frey test of mechanical allodynia. […] Therefore, Taxol-induced mechanical allodynia was employed as the measured behavioral endpoint.
The test substance was homogenized and dispersed using a mortar and a pestle in 0.2% hydroxypropylmethylcellulose (HPMC) in physiological saline, which served as the vehicle. Test articles were administered intraperitoneally in dose volumes of 10 mL/kg body weight. Preparations were made freshly for each day of administration.
Prior to test article NTP-2024 and vehicle control group administration, rats were pretreated at 30 minutes and again at 10 minutes prior to test article administration with a general metabolic inhibitor, piperonyl butoxide (150 mg/kg i.p.) in DMSO, at a volume of 1 mL/kg.
The reference article, Gabapentin, was formulated in saline to a concentration of 100 mg/mL and delivered […] at a dose volume of 1 mL/kg body weight (for a dosing concentration of 100 mg/kg).
All animals were administered Taxol, 2 mg/kg, IP at a dose volume of 1 mL/kg, on Days 1, 3, 5 and 7.
On Day 32, all animals received a single intraperitoneal injection of test article or vehicle according to Tables 1 and 2. For group 1 (vehicle), rats were pre-treated with Piperonyl butoxide (150 mg/kg IP, dose volume of 1 mL/kg) at 30 minutes and again at 10 minutes prior to vehicle administration. Four animals in group 3 (NTP-2024) were also pre-treated with Piperonyl butoxide (150 mg/kg IP, dose volume of 1 mL/kg) at 30 minutes and again at 10 minutes prior to vehicle administration. Animals in Groups 2, 3, 4, & 5 were pre-treated with Saline (dose volume of 1 mL/kg, IP) at 30 minutes and again at 10 minutes prior to test article administration. With the exception of animals in group 2, the animals received an IP injection of vehicle or test article 30 min prior to mechanical allodynia testing. Animals were dosed at a volume of 10 mL/kg.
Animals in group 2, received an IP injection of Gabapentin 90 minutes prior to mechanical allodynia testing. Animals were dosed at a volume of 1 mL/kg.
All animals underwent von Frey testing for mechanical allodynia. On testing days, the animals were returned to the chambers and allowed approximately 15 minutes to explore their surroundings prior to testing. A series of filaments were applied to the left hind paw. A 2.0 g filament was first applied to the plantar surface, if the animal responded to the filament (by lifting its paw) then the next smaller filament was applied. […] This is repeated in an “Up down” method for four responses after the first initial change in response.
The original study design used thermal hyperalgesia as the main parameter for testing the ability of the test compounds to ameliorate the pain associated with the Taxol injection. The treatment inclusion was set at a 20% drop from baseline values as determined on Day 28. […] The study design was amended to use mechanical allodynia as the testing parameter. […] This changed the testing days from Day 28 to Day 31 for allodynia confirmation and Day 29 to Day 32 for testing the article efficacy. Additional animals were received to complete the group size designation. These animals were tested for mechanical allodynia only. The study was then further amended to remove the piperonyl butoxide as a pre-treatment for Group 3 (NTP-2024). […] Because this study was conducted in two portions, four (4) animals from Group 3 received the metabolic inhibitor and five (5) received Saline as a pre-treatment.
The group mean results were analyzed versus the vehicle control group using a two way ANOVA, followed by a Bonferroni post-hoc test. Individual groups were tested pre and post dose using a paired t-test.

Data set [2] has as its system Male CD-1 mice. Briefly: Chung (SNL) neuropathic pain study in mice. It counts as in vivo, mouse. The settings on record: high dose group (180 mg/kg NTP-2014; 100 mg/kg NTP-2026; gabapentin 100 mg/kg, i.p.).
A further data set deals with Male Rj: NMRI mice. The data set can be described thus: Formalin paw test (late phase) in the mouse. Format: in vivo. The protocol:
The method described herein detects analgesic/anti-inflammatory activity, generally used to test compounds for pain relief, in particular diabetic neuropathy or nociceptive neuropathy. See Wheeler-Aceto, et al. (1991) Psychopharmacology 104: 35-44.
Mice were given an intraplantar injection of 5% formalin (25 μl) into the posterior left paw. This treatment induces paw licking in control animals. Mice were briefly observed at 1 minute intervals between 15 and 50 minutes after the injection of formalin and the number of occasions that the mice were observed licking the injected paw was recorded. There were 10 mice per group and the test was performed “blind.”
The experiment included 11 groups. Data was analyzed by comparing treated groups with vehicle control using unpaired Mann-Whitney U tests.
Gabapentin (100 mg/kg i.p.) administered under the same experimental conditions, was used as reference substance. The experiment included several groups. Data was analyzed by comparing treated groups with vehicle control using unpaired Mann-Whitney U tests.

Take `NCC1(CC(=O)O)CCCCC1` [Gabapentin, reference compound]: the “Reversal of tactile hypersensitivity” value with Male CD-1 mice [1] is on record as “dose-dependent activity”. Further, in the data set with male Sprague Dawley rats, the “Reversal of mechanical allodynia” value is given as “able to mitigate the mechanical allodynia; also recorded: significantly reverse”. For the same compound, the Sedation entry with Male CD-1 mice [2] is “minor sedation and incoordination”. Also, in the data set on Male Rj: NMRI mice (gabapentin 100 mg/kg (584 μmol/kg)), the “Licking Score % Pain Decrease” value stood at 63%. The “Licking Score (15 to 50 minutes post-formalin injection) % Change from Control” value with Male Rj: NMRI mice (gabapentin 100 mg/kg i.p. (584 μmol/kg)) is −63%.
